Results: patent US5936063A, “Antimicrobial peptide isolated from Bufo bufo gargarizans” (priority 1998, dated 1999)

How the values were obtained:
[1] = system: Salmonella typhimurium; assay: Minimal inhibitory concentration test; type: cell-based; details: Gram-negative bacteria
Protocol: (§1) Antimicrobial activity of the peptide of the invention was measured by its minimal inhibitory concentration against various test microorganisms (see: Table 1).
(§2) On the other hand, comparison of the antimicrobial activity of the peptide with a commercially available Magainin 2 (Sigma, USA) was followed and summarized in Table 2 below.

[2] = system: Staphylococcus aureus; assay: Minimal inhibitory concentration test; type: cell-based; details: Gram-positive bacteria
Protocol: as §1, §2

**Q.** Which Minimal inhibitory concentration [1] does the source give for Magainin 2 here?
**A.** 25 mg/mL

**Q.** What about the Minimal inhibitory concentration [2] of the same substance?
**A.** 13 mg/mL
